Measurements reported in patent US7585644B2, “Mycopolasma detecting methods and materials” (priority 2003, dated 2009).

Legend:
[1] = system: luciferase enzyme/reaction; experiment: Effect of detergents and substrate on light output of the luciferase reaction; format: biochemical
Text: (§1) The aim of the following experiments was to determine the concentrations of Triton-X100 in the Hepes-EDTA buffer on the ratios seen with mycoplasma contaminated K562 cell cultures. Two organisms were investigated, M. hyorhinis and M. orale.
(§2) However, it is still possible to detect positive activity with concentrations as high as 20% (v/v).
(§3) The concentrations of these detergents can be taken up to 10% without loss of sensitivity of mycoplasmal detection.

[2] = biological target: luciferase (Photinus pyralis, UniProt P08659); conditions: cited from earlier work
Sequence of luciferase (P08659 whole entry): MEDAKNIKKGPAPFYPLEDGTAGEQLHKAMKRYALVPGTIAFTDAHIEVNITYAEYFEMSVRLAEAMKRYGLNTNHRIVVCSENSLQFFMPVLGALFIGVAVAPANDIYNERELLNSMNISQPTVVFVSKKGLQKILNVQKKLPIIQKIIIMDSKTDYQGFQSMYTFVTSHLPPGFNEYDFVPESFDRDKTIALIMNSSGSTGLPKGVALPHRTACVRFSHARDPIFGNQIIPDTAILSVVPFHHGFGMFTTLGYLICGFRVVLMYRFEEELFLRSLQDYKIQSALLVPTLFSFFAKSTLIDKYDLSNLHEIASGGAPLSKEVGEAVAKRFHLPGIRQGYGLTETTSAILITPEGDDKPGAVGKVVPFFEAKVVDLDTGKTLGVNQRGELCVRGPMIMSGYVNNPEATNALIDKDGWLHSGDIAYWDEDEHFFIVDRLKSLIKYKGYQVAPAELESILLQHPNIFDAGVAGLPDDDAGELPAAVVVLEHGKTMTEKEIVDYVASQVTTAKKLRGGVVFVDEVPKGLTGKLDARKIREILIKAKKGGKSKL

[3] = system: M. pneumoniae, M. hominis, M. fermentans, M. genitalium and U. urealyticum; conditions: variable responses between species; cited from earlier work
[4] = system: M. hyorhinis and M. orale; experiment: Effect of detergent concentration on detection of mycoplasma enzyme activities; format: cell-based
Text: as §1, §2
However, mycoplasma can be lysed with concentrations of Triton X-100 at around 1-2%.
as §3

[5] = system: E. coli strain JM109 cells; experiment: Effect of Triton-X100 on carbamate or acetate kinase activity from bacterial cells; format: cell-based

In the case of `CC(=O)OP(=O)(O)O` [Acetyl phosphate], the “concentration above which light output is reduced” value ([1]; assay still performs) is reported as “above 10”.

For `Nc1ncnc2c1ncn2[C@H]1C[C@H](O)[C@@H](COP(=O)(O)OP(=O)(O)OP(=O)(O)O)O1` [deoxy-ATP], the “light produced relative to the light generated by ATP” value [2] is listed as “less than 2%”.

In the case of `CO/N=C1\CN(c2nc3c(cc2F)c(=O)c(C(=O)O)cn3C2CC2)CC1CN` (centres unmarked) [gemifloxacin], the “performance against mycoplasma compared with other antibiotics” value [3] is listed as “performed better than tetracycline”.

For Triton-X100, the “concentration that lyses mycoplasma” value [4] was 1-2%, the “highest detergent concentration at which positive activity is still detected” value ([4]; K562 cells infected with M. hyorhinis and M. orale) was 20 % (v/v) and the “carbamate or acetate kinase activity” value ([5]; Triton-X100 concentrations of the FIG. 10 experiments) was “did not result in any detectable carbamate or acetate kinase activity”. The “ratio B/A” value ([5]; Triton-X100 increased to 1-2%) was “did not result in positive ratios above 1” and the “detergent concentration above which light output drops” value ([1]; K562 cells infected with M. hyorhinis and M. orale, Hepes-EDTA buffer) was 4-5%.
